Test results taken from patent US5602101A, “Antithrombotic agents” (priority 1994, dated 1997).

Assays:
[1] = system: Human Plasma; assay: Anticoagulation in human plasma, prothrombin time (PT); format: biochemical; conditions: concentration required to double the PT
Procedure: (§1) Dog plasma and rat plasma are obtained from conscious mixed-breed hounds (either sex, Hazelton-LRE, Kalamazoo, Mich., U.S.A.) or from anesthetized male Sprague-Dawley rats (Harlan Sprague-Dawley, Inc., Indianapolis, Ind., U.S.A.) by venipuncture into 3.8 percent citrate. Fibrinogen is prepared from in-date ACD human blood as the fraction I-2 according to previous procedures and specifications. Smith, Biochem. Chem. […] Human fibrinogen is also purchased as 98 percent pure/plasmin free from American Diagnostics, Greenwich, Conn. Coagulation reagents ACTIN, Thromboplastin, and Human plasma are from Baxter Healthcare Corp., Dade Division, Miami, Fla. Bovine thrombin from Parke-Davis (Ann Arbor, Mich.) is used for coagulation assays in plasma. Coagulation assay procedures are as previously described. Smith, et al., Thrombosis Research, 5, 163-174 (1988). A CoAScreener coagulation instrument (American LABor, Inc.) is used for all coagulation assay measurements. The prothrombin time (PT) is measured by adding 0.05 ml saline and 0.05 ml Thromboplastin-C reagent to 0.05 ml test plasma. The activated partial thromboplastin time (APTT) is measured by incubation of 0.05 ml test plasma with 0.05 ml Actin reagent for 120 seconds followed by 0.05 ml CaCl2 (0.02M). […] The compounds of formula I are added to human or animal plasma over a wide range of concentrations to determine prolongation effects on the APTT, PT, and TT assays. Linear extrapolations are performed to estimate the concentrations required to double the clotting time for each assay.

[2] = biological target: T1, Bovine trypsin (Bos taurus, UniProt P00760); assay: Serine protease inhibition, trypsin (chromogenic substrate), Kass; format: biochemical; conditions: substrate N-Benzoyl-Phe-Val-Arg-p-nitroanilide
T1 construct: Bovine trypsin is purchased from Worthington Biochemicals, Freehold, N.J; purchased Worthington Biochemicals, Freehold, N.J
T1 sequence (P00760 24-246): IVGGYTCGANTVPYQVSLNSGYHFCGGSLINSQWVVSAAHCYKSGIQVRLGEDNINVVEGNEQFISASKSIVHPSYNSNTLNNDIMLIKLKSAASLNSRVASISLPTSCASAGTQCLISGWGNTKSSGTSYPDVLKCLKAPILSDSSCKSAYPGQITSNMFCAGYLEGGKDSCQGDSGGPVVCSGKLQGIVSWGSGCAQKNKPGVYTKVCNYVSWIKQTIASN
Procedure: (§2) The assay is carried out by mixing 50 μl buffer (0.03M Tris, 0.15M NaCl, pH 7.4), 25 μl of human thrombin solution (purified human thrombin Enzyme Research Laboratories, South Bend, Ind.) at 8 NIH units/ml and 25 μl of test compound in a solvent (50% aqueous methanol (v:v)). Then 150 μl of an aqueous solution of the chromogenic substrate (at 0.25 mg/ml) are added and the rates of hydrolysis of the substrate are measured by monitoring the reactions at 405 nm for the release of p-nitroaniline. Standard curves are constructed by plotting free thrombin concentration against hydrolysis rate. The hydrolysis rates observed with test compounds are then converted to "free thrombin" values in the respective assays by use of the standard curves. The bound thrombin (bound to test compound) is calculated by subtracting the amount of free thrombin observed in each assay from the known initial amount of thrombin used in the assay. The amount of free inhibitor in each assay is calculated by subtracting the number of moles of bound thrombin from the number of moles of added inhibitor (test compound).
(§3) Kass is calculated for a range of concentrations of test compounds and the mean value is reported in units of liter per mole.
(§4) By substantially following the procedures described above for human thrombin, and using other human blood coagulation system serine proteases, and using fibrinolytic system serine proteases, with the appropriate chromogenic substrate, identified below, selectivity of the compounds of the present invention with respect to the coagulation factor serine proteases and to the fibrinolytic serine proteases are evaluated as well as their substantial lack of interference with human plasma clot fibrinolysis.
(§5) Human factors X, Xa, IXa, XIa, and xIIa are purchased from Enzyme Research Laboratories, South Bend, Ind.; human urokinase from Leo Pharmaceuticals, Denmark; and recombinant activated Protein C (aPC) is prepared at Eli Lilly and Co. substantially according to U.S. Pat. No. 4,981,952 incorporated by reference herein in its entirety. Chromogenic substrates: N-Benzoyl-Ile-Glu-Gly-Arg-p-nitroanilide (for factor Xa); N-Cbz-D-Arg-Gly-Arg-p-nitroanilide (for factor IXa assay as the factor Xa substrate) pyroglutamyl-Pro-Arg-p-nitroanilide (for factor XIa and for aPC); H-D-Pro-Phe-Arg-p-nitroanilide (for factor XIIa); and pyroglutamyl-Gly-Arg-p-nitroanilide (for urokinase); are purchased from KabiVitrum, Stockholm, Sweden, or from Midwest Biotech, Fishers, Indiana. Bovine trypsin is purchased from Worthington Biochemicals, Freehold, N.J., and human plasma kallikrein from Kabi Vitrum, Stockholm, Sweden. N-Benzoyl-Phe-Val-Arg-p-nitroanilide, the substrate for human thrombin and for trypsin, is synthesized according to procedures described above for the compounds of the present invention, known methods of peptide coupling from commercially available reactants, or was purchased from Midwest Biotech, Fishers, Ind. Human plasmin is purchased from Boehringer Mannheim, Indianapolis, Ind.; nt-PA is purchased as single chain activity reference from American Diagnostics, Greenwich, Conn.; modified-t-PA6 (mt-PA6) is prepared at Eli Lilly and Company by procedure known in the art (See, Burck, et al., J. Biol. Chem., 265, […] (1990). Plasmin chromogenic substrate H-D-Val-Leu-Lys-p-nitroanilide and tissue plasminegen activator (t-PA) substrate H-D-Ile-Pro-Arg-p-nitroanilide are purchased from Kabi Vitrum, Stockholm, Sweden.

[3] = biological target: T2, Human plasmin (Homo sapiens, UniProt P00747); assay: Serine protease inhibition, plasmin (chromogenic substrate), Kass; format: biochemical; conditions: substrate H-D-Val-Leu-Lys-p-nitroanilide
T2 construct: Human plasmin is purchased from Boehringer Mannheim, Indianapolis, Ind; purchased Boehringer Mannheim, Indianapolis, Ind
T2 sequence (P00747 581-810 limits assumed): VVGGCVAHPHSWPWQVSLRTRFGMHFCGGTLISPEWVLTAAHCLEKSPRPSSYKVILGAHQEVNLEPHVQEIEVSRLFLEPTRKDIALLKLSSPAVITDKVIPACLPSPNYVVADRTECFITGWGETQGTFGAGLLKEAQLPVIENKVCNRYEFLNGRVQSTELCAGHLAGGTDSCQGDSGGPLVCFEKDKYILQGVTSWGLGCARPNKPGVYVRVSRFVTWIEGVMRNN
T2 sequence (P00747 97-580 partner limits assumed): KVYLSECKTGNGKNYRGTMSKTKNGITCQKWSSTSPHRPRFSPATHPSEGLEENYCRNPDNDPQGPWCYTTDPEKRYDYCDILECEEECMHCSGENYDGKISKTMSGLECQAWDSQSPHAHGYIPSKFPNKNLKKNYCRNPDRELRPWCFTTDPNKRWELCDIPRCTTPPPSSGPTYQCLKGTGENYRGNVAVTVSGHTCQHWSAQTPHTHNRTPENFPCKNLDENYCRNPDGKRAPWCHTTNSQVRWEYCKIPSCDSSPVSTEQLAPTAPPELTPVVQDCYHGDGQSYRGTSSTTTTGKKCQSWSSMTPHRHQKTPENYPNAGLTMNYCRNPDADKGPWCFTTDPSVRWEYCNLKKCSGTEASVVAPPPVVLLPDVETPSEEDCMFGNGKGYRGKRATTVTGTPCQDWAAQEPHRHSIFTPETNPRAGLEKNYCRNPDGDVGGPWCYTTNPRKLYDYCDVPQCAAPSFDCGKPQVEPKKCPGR
Procedure: as §2, §3, §4, §5

[4] = biological target: T3, human thrombin (Homo sapiens, UniProt P00734); assay: Inhibition of amidase activity of thrombin (chromogenic substrate), Kass; format: biochemical; conditions: substrate N-benzoyl-Phe-Val-Arg-p-nitroanilide, pH 7.4
T3 construct: purified human thrombin Enzyme Research Laboratories, South Bend, Ind; purchased Enzyme Research Laboratories, South Bend, Ind
Procedure: as §2
The Kass value is the hypothetical equilibrium constant for the reaction between thrombin and the test compound (I). [drawing 53]
as §3

[5] = biological target: T4, tissue plasminogen activator (t-PA) (Homo sapiens, UniProt P00750); assay: Serine protease inhibition, t-PA (chromogenic substrate), Kass; format: biochemical; conditions: substrate H-D-Ile-Pro-Arg-p-nitroanilide
T4 construct: purchased American Diagnostics, Greenwich, Conn
T4 sequence (P00750 36-562): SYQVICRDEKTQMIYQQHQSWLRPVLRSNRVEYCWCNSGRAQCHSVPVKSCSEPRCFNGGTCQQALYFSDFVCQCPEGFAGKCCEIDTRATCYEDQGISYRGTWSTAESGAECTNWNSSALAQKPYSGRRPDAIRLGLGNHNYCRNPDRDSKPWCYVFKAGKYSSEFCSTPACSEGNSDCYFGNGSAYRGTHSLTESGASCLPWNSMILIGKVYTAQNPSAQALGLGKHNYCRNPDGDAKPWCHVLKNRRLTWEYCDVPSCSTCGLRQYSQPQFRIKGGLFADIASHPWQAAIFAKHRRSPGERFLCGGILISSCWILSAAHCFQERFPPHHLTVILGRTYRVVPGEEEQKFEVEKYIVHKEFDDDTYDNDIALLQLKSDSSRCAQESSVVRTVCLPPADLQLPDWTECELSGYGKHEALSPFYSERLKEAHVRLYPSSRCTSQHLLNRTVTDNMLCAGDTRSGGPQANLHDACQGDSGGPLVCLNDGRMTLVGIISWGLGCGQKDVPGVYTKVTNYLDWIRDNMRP
Procedure: as §2, §3, §4, §5

[6] = system: Human Plasma; assay: Anticoagulation in human plasma, thrombin time (TT); format: biochemical; conditions: concentration required to double the thrombin time
Procedure: as §1

[7] = system: Human Plasma; assay: Anticoagulation in human plasma, activated partial thromboplastin time (APTT); format: biochemical; conditions: concentration required to double the APTT
Procedure: as §1

[8] = Index of bioavailability (plasma TT AUC, p.o. vs i.v.); conditions: rats, adjusted for dose
Procedure: Male Sprague Dawley rats (350-425 gm, Harlan Sprague Dawley Inc., Indianapolis, Ind.) are anesthetized with xylazine (20 mg/kg, s.c.) and ketamine (120 mg/kg, s.c.) and maintained on a heated water blanket (37° C.). The jugular vein(s) is cannulated to allow for infusions.
Plasma thrombin time (TT) and activated partial thromboplastin time (APTT) are measured with a fibrometer. Blood is sampled from a jugular catheter and collected in syringe containing sodium citrate (3.8%, 1 part to 9 parts blood). To measure TT, rat plasma (0.1 ml) is mixed with saline (0.1 ml) and bovine thrombin (0.1 ml, 30 U/ml in TRIS buffer; Parke Davis) at 37° C. For APTT, plasma (0.1 ml) and APTT solution (0.1 ml, Organon Teknika are incubated for 5 minutes (37° C.) and CaCl2 (0.01 ml, 0,025M) is added to start coagulation. Assays are done in duplicate and averaged.
The time course of the effect of the thrombin inhibitor upon TT is determined after i.v bolus administration to anesthetized rats and after oral treatment of fasted conscious rats. Due to limitations of blood volume and the number of points required to determine the time course from time of treatment to the time when the response returns to pretreatment values, two populations of rats are used. Each sample population represents alternating sequential time points. The average TT over the time course is used to calculate area under the curve (AUC). The index of bioavailability is calculated by the formula shown below and is expressed as percent relative activity.
The area under the curve (AUC) of the plasma TT time course is determined and adjusted for the dose. This index of bioavailability is termed "% Relative Activity" and is calculated as [formula]
Compound solutions are prepared fresh daily in normal saline and are injected as a bolus or are infused starting 15 min before and continuing throughout the experimental perturbation which is 15 minutes in the arteriovenous shunt model and 60 minutes in the FeCl3 model of arterial injury and in the spontaneous thrombolysis model. Bolus injection volume is 1 ml/kg for i.v., and 5 ml/kg for p.o. and infusion volume is 3 ml/hr.

[9] = biological target: T5, factor Xa (Homo sapiens, UniProt P00742); assay: Serine protease inhibition, factor Xa (chromogenic substrate), Kass; format: biochemical; conditions: substrate N-Benzoyl-Ile-Glu-Gly-Arg-p-nitroanilide
T5 construct: Human factors X, Xa, IXa, XIa, and xIIa are purchased from Enzyme Research Laboratories; purchased Enzyme Research Laboratories, South Bend, Ind
T5 sequence (P00742 235-488 limits assumed): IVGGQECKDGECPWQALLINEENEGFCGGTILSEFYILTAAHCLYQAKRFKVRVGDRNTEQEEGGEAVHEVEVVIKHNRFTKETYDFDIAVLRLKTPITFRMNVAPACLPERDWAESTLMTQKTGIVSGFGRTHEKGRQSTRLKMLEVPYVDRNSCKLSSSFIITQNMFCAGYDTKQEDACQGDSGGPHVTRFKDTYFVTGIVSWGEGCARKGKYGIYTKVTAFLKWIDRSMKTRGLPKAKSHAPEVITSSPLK
T5 sequence (P00742 41-179 partner limits assumed): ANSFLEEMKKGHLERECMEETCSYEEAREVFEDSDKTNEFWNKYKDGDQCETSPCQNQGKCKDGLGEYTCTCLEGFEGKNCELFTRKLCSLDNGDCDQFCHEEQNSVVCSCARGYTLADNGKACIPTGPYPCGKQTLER
Procedure: as §2, §3, §4, §5

Structure (SMILES)	2 × Clotting time, PT [1]	Enzyme Kass, Trypsin [2] [L/mol × 10^6]	Enzyme Kass, Plasmin [3] [L/mol × 10^6]	Enzyme Kass, Human Thrombin [4] [L/mol × 10^6]	Enzyme Kass, t-Pa [5] [L/mol × 10^6]	2 × Clotting time, TT [6] [ng/mL]	2 × Clotting time, APTT [7]	Index of Bioavailability, % Relative Activity [8] [%]	Enzyme Kass, Xa [9] [L/mol × 10^6]
CCCCS(=O)(=O)N[C@H](Cc1ccccc1)C(=O)N1CCC[C@H]1C(=O)N[C@H](C=O)CCCNC(=N)N.Cl [Example 10, n-Bu-SO2 -D-Phe-Pro-Arg-H.HCl]	700 ng/mL	230	27	470	0.83	18	300 ng/mL	18	8.3
Cl.N=C(N)NCCC[C@@H](C=O)NC(=O)[C@@H]1CCCN1C(=O)[C@@H](Cc1ccccc1)NS(=O)(=O)c1ccc(C(=O)O)cc1 [Example 18, 4-(HO2 C)-C6 H4 SO2 -D-Phe-Pro-Arg-H.HCl]	3,000 ng/ML	43	7.0	70	1.1	120	1,200 ng/ML	13	2.0
Cl.N=C(N)NCCC[C@@H](C=O)NC(=O)[C@@H]1CCCN1C(=O)[C@@H](Cc1ccccc1)NS(=O)(=O)c1ccc(F)cc1F [Example 14, 2,4-F-PhSO2 -D-Phe-Pro-Arg-H-HCl]	940 ng/mL	160	25	230	2.4	21	350 ng/mL	6	11
Cl.Cn1c(C(=O)NC(Cc2ccccc2)C(=O)N2CCCC2C(=O)NC(C=O)CCCN=C(N)N)cc2ccccc21 [Example 1, NMI-D-Phe-Pro-Arg-H.HCl]	870 ng/mL	120	7.9	850	31	43	440 ng/mL	2	0.51
Cl.NC(N)=NCCCC(C=O)NC(=O)C1CCCN1C(=O)C(Cc1ccccc1)NC(=O)c1ccc2ccccc2n1 (stereo not drawn) [Example 2]	1,400 ng/ML	22	0.55	110	0.32	35	1,100 ng/ML	1	0.16
Cl.NC(N)=NCCCC(C=O)NC(=O)C1CCCN1C(=O)C(CC1CCCCC1)NC(=O)c1ccc2ccccc2n1 [Example 6, N-(quinolinyl-2-carbonyl)-D-Cha-Pro-Arg-H-HCl]	2,700 ng/ML	2.5	2.5	200	0.088	97	1,400 ng/ML	–	0.83
CC(=O)N[C@H](Cc1ccccc1)C(=O)N1CCC[C@H]1C(=O)N[C@H](C=O)CCCN=C(N)N.Cl [Example 23, Ac-D-Phe-Pro-Arg-H.HCl]	4,100 ng/ML	14	0.28	3.4	0.11	140	2,700 ng/ML	–	0.066
Cl.N=C(N)NCCC[C@@H](C=O)NC(=O)[C@@H]1CCCN1C(=O)[C@@H](Cc1ccccc1)NS(=O)(=O)c1nccs1 [Example 19, 2-Thiazolyl-SO2 -D-Phe-Pro-Arg-H-HCl]	2,900 ng/ML	52	3.4	68	0.31	66	810 ng/mL	–	2.8
